Measured values reported in PubChem BioAssay (NCI).
“And” between values parts separate entries of the source, which are not always exact repeats. Equal entries are not always repeated.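 Dose response: 5 concentrations. Exposure: 48 h. Format: 96-well plates. Endpoint: linear interpolation; highest concentration if not reached. The concentration for 50% growth inhibition is given as GI50. TGI marks complete inhibition of growth.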

Key:
Test in all cases: NCI anticancer screen, dose series, 48 h
DU-145 prostate = system: DU-145 prostate
HS 578T breast = system: HS 578T breast
M14 melanoma = system: M14 melanoma
NCI/ADR-RES ovarian = system: NCI/ADR-RES ovarian
PC-3 prostate = system: PC-3 prostate
T-47D breast = system: T-47D breast

SMILES	TGI (DU-145 prostate) [µM]	TGI (HS 578T breast)	TGI (M14 melanoma)	TGI (NCI/ADR-RES ovarian)	TGI (PC-3 prostate)	TGI (T-47D breast)	GI50 (DU-145 prostate) [µM]	GI50 (HS 578T breast)	GI50 (M14 melanoma)	GI50 (NCI/ADR-RES ovarian)	GI50 (PC-3 prostate)	GI50 (T-47D breast)
COc1ccc(NC2=CC(=O)C(=O)c3ccccc32)nn1	3.19	> 100 µM	0.668 µM	3.65 µM	38.9 µM	11.9 µM	–	–	–	–	–	–
CC1=CC(=Nc2ccc(N(CCCl)CCCl)cc2)C=C(C)C1=O	4.57	7.73 µM	3.98 µM	10.1 µM	7.08 µM	3.22 µM	0.374	2.08 µM	0.603 µM	1.09 µM	1.48 µM	0.64 µM
COc1ccc(-c2cc(=O)c3c(OC)c(OC)c(OC)cc3o2)cc1	> 100	> 100 µM	> 100 µM	> 100 µM	–	62.4 µM	–	–	–	–	–	–
O=C1c2cc(Cl)ccc2S(=O)(=O)c2c(NCCCNCCO)nc3ccccc3c21	2.52	14.9 µM	4.9 µM	10.8 µM	3.66 µM	2.96 µM	1.25	2.68 µM	1.95 µM	3.05 µM	1.53 µM	1.24 µM
C[C@@H]1OC(O)[C@@H](F)[C@H](O)[C@@H]1O (stereo not given in full)	> 100	> 100 µM	> 100 µM	> 100 µM	> 100 µM	> 100 µM	> 100	> 100 µM	> 100 µM	> 100 µM	> 100 µM	> 100 µM
CC[C@@H]1C(=O)N(C)c2cnc(Nc3ccc(C(=O)NC4CCN(C)CC4)cc3OC)nc2N1C1CCCC1	> 10	0.394 µM and 0.475 µM	> 4.22 µM and 2.37 µM	> 10 µM and 19 µM	> 10 µM and 19.1 µM	> 10 µM and 6.27 µM	0.00363	0.00842 µM and 0.0188 µM	0.00384 µM and < 0.01 µM	0.351 µM and 0.244 µM	0.00454 µM and < 0.01 µM	0.0718 µM and 0.157 µM
CCC(C)c1c(Cl)nc(Cl)nc1Cl (stereo not given)	30.4	> 100 µM	3.43 µM	> 100 µM	44.1 µM	–	–	–	–	–	–	–
Oc1c(CN2CCC(N3CCCCC3)CC2)cc(Cc2cc(CN3CCC(N4CCCCC4)CC3)c(O)c3ncccc23)c2cccnc12	16.1	28.7 µM	2.75 µM	17.9 µM	15.9 µM	4.8 µM	0.871	4.67 µM	1.11 µM	3.12 µM	1.28 µM	0.51 µM
Cn1c(=O)c2[nH]c(SCc3ccccn3)nc2n(C)c1=S	> 100	> 100 µM	> 100 µM	> 100 µM	> 100 µM	> 100 µM	–	–	–	–	–	–
COc1ccc(/C(COc2c(-c3ccccc3)oc3ccccc3c2=O)=N\O)cc1	> 50	–	> 50 µM	39.6 µM	35.5 µM	41.6 µM	22	–	28.3 µM	11.4 µM	13.4 µM	13.5 µM
CC(=O)OCCN1c2ccccc2Sc2cnccc21	> 10	–	> 10 µM	> 10 µM	> 10 µM	> 10 µM	–	–	–	–	–	–
COc1cc(C2=C(c3ccccc3)COC2=O)cc(OC)c1OC	> 100	> 90 µM	> 27.7 µM	–	> 100 µM	> 100 µM	4.68	5.61 µM	1.79 µM	–	1.35 µM	20.9 µM
N#Cc1ccc(O)c(C2=NCC(c3cccc(Oc4ccccc4)c3)O2)c1 (stereo not given)	> 100	> 100 µM	–	6.51 µM	41.6 µM	59.6 µM	1.27	3.03 µM	–	0.29 µM	0.938 µM	0.817 µM
CC[C@]1(O)C[C@@H]2CN(CCc3c([nH]c4ccccc34)[C@@](C(=O)OC)(c3cc4c(cc3OC)N(C)[C@H]3[C@@](O)(C(=O)OC)[C@H](OC(C)=O)[C@]5(CC)C=CCN6CC[C@]43[C@@H]65)C2)C1	–	10.8 µM	4.31 µM	2.68 µM	22.2 µM	> 100 µM	–	< 0.01 µM	< 0.01 µM	< 0.0445 µM	< 0.01 µM	8.59 µM
CC(C)(C)OC(=O)N1CCc2c(sc3ncnc(N/N=C/c4cccc5ccccc45)c23)C1	> 100	> 100 µM	–	43.8 µM	> 100 µM	31.9 µM	5.51	2.4 µM	–	3.74 µM	4.59 µM	3.04 µM
CS(=O)(=O)c1ccc([C@H]2O[C@@H](CO)C[C@]2(O)c2ccc(S(C)(=O)=O)cc2)cc1	> 100	> 100 µM	–	> 100 µM	> 100 µM	–	> 100	> 100 µM	–	> 100 µM	> 100 µM	–
Nc1nc(Cl)c2ncn(Cc3ccc(C45CC6CC(CC(C6)C4)C5)c(O)c3)c2n1	11.8	12.1 µM	–	16.4 µM	4.44 µM	24.5 µM	3.14	2.29 µM	–	3.15 µM	1.73 µM	3.75 µM
